Measured values taken from patent publication US10441593B2, “Treatment of pain associated with dislocation of endometrium” (PREGLEM S.A., priority 2010, dated 2019).

System: patients with heavy menstrual bleeding and pain
Test: Hepatobiliary Disorders and Liver Safety analysis (Example 3)
Type: in vivo, human
Protocol: A double-blinded, randomized, study evaluating the effect of long term oral administration of 5 mg or 10 mg ulipristal in patients with heavy menstrual bleeding and pain. A Hepatobiliary Disorders and Liver Safety analysis was carried out for all patients. This summary table illustrates the increased number of subjects from the 3 treatment groups who had increased levels of AST, ALT and total bilirubin during the study.

[1] = Ulipristal 5 mg (n = 97), Week 5
[2] = Ulipristal 5 mg (n = 97), Week 9
[3] = Ulipristal 5 mg (n = 97), Week 13
[4] = Ulipristal 5 mg (n = 97), Week 17
[5] = Ulipristal 10 mg (n = 103), Week 5
[6] = Ulipristal 10 mg (n = 103), Week 9
[7] = Ulipristal 10 mg (n = 103), Week 13
[8] = Ulipristal 10 mg (n = 103), Week 17

CC(=O)O[C@]1(C(C)=O)CC[C@H]2[C@@H]3CCC4=CC(=O)CCC4=C3[C@@H](c3ccc(N(C)C)cc3)C[C@@]21C [Ulipristal, 17α-acetoxy-11β-[4-N,N-dimethylamino-phenyl)-19-norpregna-4,9-diene-3,20-dione]
treatment related changes in liver function tests (5 mg or 10 mg, long term oral administration): no signals of any treatment related changes in liver function tests | ALT High not CS, number (%) of subjects [1]: 4 (4.1%) | ALT Low not CS, number (%) of subjects [1]: 0 | AST High not CS, number (%) of subjects [1]: 6 (6.2%) | AST Low not CS, number (%) of subjects [1]: 0 | Total bilirubin High CS, number (%) of subjects [1]: 0 | Total bilirubin High not CS, number (%) of subjects [1]: 2 (2.1%) | Total bilirubin Low not CS, number (%) of subjects [1]: 0 | ALT High not CS, number (%) of subjects [2]: 0 | ALT Low not CS, number (%) of subjects [2]: 0 | AST High not CS, number (%) of subjects [2]: 3 (3.1%) | AST Low not CS, number (%) of subjects [2]: 0 | Total bilirubin High not CS, number (%) of subjects [2]: 3 (3.1%) | Total bilirubin Low not CS, number (%) of subjects [2]: 0 | ALT High not CS, number (%) of subjects [3]: 1 (1.0%) | ALT Low not CS, number (%) of subjects [3]: 0 | AST High not CS, number (%) of subjects [3]: 2 (2.1%) | AST Low not CS, number (%) of subjects [3]: 0 | Total bilirubin High not CS, number (%) of subjects [3]: 3 (3.1%) | Total bilirubin Low not CS, number (%) of subjects [3]: 0 | ALT High CS, number (%) of subjects [4]: 0 | ALT High not CS, number (%) of subjects [4]: 2 (2.1%) | ALT Low not CS, number (%) of subjects [4]: 0 | AST High not CS, number (%) of subjects [4]: 3 (3.1%) | AST Low not CS, number (%) of subjects [4]: 0 | Total bilirubin High not CS, number (%) of subjects [4]: 2 (2.1%) | Total bilirubin Low not CS, number (%) of subjects [4]: 0 | subjects with elevations of both AST and ALT above 2×ULN, but <3×ULN for consecutive samples (Ulipristal 5 mg group): 1 subject | ALT High not CS, number (%) of subjects [5]: 6 (5.8%) | ALT Low not CS, number (%) of subjects [5]: 0 | AST High not CS, number (%) of subjects [5]: 6 (5.8%) | AST Low not CS, number (%) of subjects [5]: 0 | Total bilirubin High CS, number (%) of subjects [5]: 0 | Total bilirubin High not CS, number (%) of subjects [5]: 3 (2.9%) | Total bilirubin Low not CS, number (%) of subjects [5]: 0 | ALT High not CS, number (%) of subjects [6]: 3 (2.9%) | ALT Low not CS, number (%) of subjects [6]: 0 | AST High not CS, number (%) of subjects [6]: 3 (2.9%) | AST Low not CS, number (%) of subjects [6]: 0 | Total bilirubin High not CS, number (%) of subjects [6]: 4 (3.9%) | Total bilirubin Low not CS, number (%) of subjects [6]: 0 | ALT High not CS, number (%) of subjects [7]: 5 (4.9%) | ALT Low not CS, number (%) of subjects [7]: 0 | AST High not CS, number (%) of subjects [7]: 4 (3.9%) | AST Low not CS, number (%) of subjects [7]: 0 | Total bilirubin High not CS, number (%) of subjects [7]: 6 (5.8%) | Total bilirubin Low not CS, number (%) of subjects [7]: 0 | ALT High CS, number (%) of subjects [8]: 0 | ALT High not CS, number (%) of subjects [8]: 4 (3.9%) | ALT Low not CS, number (%) of subjects [8]: 0 | AST High not CS, number (%) of subjects [8]: 4 (3.9%) | AST Low not CS, number (%) of subjects [8]: 0 | Total bilirubin High not CS, number (%) of subjects [8]: 2 (1.9%) | Total bilirubin Low not CS, number (%) of subjects [8]: 0 | subjects with elevations of both AST and ALT above 2×ULN, but <3×ULN for consecutive samples (Ulipristal 10 mg group): 2 subjects | liver toxicity based on Treatment Emergent Adverse Events (TEAEs) (clinical studies): no evidence of liver toxicity
